Test results reported in ChEMBL document CHEMBL4311997, “Discovery of a potent histone deacetylase (HDAC) 3/6 selective dual inhibitor” (Eur J Med Chem, 2019).
The source made the active and inactive calls. No cut-off for these calls is given here.

How the values were obtained:
Homo sapiens [1] = organism: Homo sapiens; assay: Selectivity ratio of IC50 for human HDAC3 to IC50 for human HDAC6
Homo sapiens [2] = organism: Homo sapiens; assay: Inhibition of human MLL1 complex at 100 uM using core histone as substrate incubated for 1 hr in presence of [3H]-SAM by filter binding method relative to control
Homo sapiens [3] = organism: Homo sapiens; assay: Selectivity ratio of IC50 for human HDAC4 to IC50 for human HDAC6
MDA-MB-231 [4] = assay: Induction of apoptosis in human MDA-MB-231 cells assessed as viable cells at 3 uM incubated for 48 hrs by Annexin V-FITC/PI staining by flow cytometric analysis (reference value: 77%); assay type: functional; conditions: MDA-MB-231, 48 h, read-out: Activity
TAMH = assay: Cytotoxicity against TAMH cells incubated for 24 hrs by CellTiter-Glo Cell Viability Assay; assay type: cell-based; conditions: Mus musculus
KMS-12-BM = assay: Effect on human KMS-12-BM cells assessed as increase in cleaved PARP level at 10 uM incubated for 24 hrs by Western blot analysis; assay type: functional, cell-based
[5] = Effective permeability of the compound at pH 7.4 measured after 16 hrs by PAMPA assay; assay type: ADME; conditions: read-out: Peff
[6] = biological target: Protein arginine N-methyltransferase 1 (Homo sapiens) (UniProt Q99873); assay: Inhibition of human PRMT1 at 100 uM using histone H4 as substrate incubated for 1 hr in presence of [3H]-SAM by filter binding method relative to control
MOLM-14 = assay: Antiproliferative activity against human MOLM14 cells incubated for 48 hrs by CellTiter-Glo luminescent cell viability assay; assay type: functional, cell-based; conditions: MOLM-14, 48 h
Homo sapiens [7] = organism: Homo sapiens; assay: Selectivity ratio of IC50 for human HDAC2 to IC50 for human HDAC6
[8] = Half life in female rat liver microsomes at 3 uM preincubated for 5 mins followed by NADPH addition and measured up to 45 mins by LC-MS/MS analysis; assay type: ADME, Microsome
[9] = biological target: Histone deacetylase 4 (Homo sapiens) (UniProt P56524); assay: Inhibition of human HDAC4 at 10 uM using Acetyl-Lys (trifluoroacetyl)-AMC) as substrate incubated for 2 hrs by fluorescence assay relative to control
[10] = biological target: Histone deacetylase 7 (Homo sapiens) (UniProt Q8WUI4); assay: Inhibition of human HDAC7 at 10 uM using Acetyl-Lys (trifluoroacetyl)-AMC) as substrate incubated for 2 hrs by fluorescence assay
Histone deacetylase 2 = Histone deacetylase 2 (Homo sapiens, UniProt Q92769); assay: Inhibition of human HDAC2 using Arg-His-Lys-Lys (Ac) as substrate incubated for 2 hrs by fluorescence assay
MDA-MB-231 [11] = assay: Induction of apoptosis in human MDA-MB-231 cells assessed as viable cells at 6 uM incubated for 48 hrs by Annexin V-FITC/PI staining by flow cytometric analysis (reference value: 77%); assay type: functional; conditions: MDA-MB-231, 48 h, read-out: Activity
[12] = biological target: Polyamine deacetylase HDAC10 (Homo sapiens, UniProt Q969S8); assay: Inhibition of human HDAC10 using Acetyl-Lys (trifluoroacetyl)-AMC) as substrate incubated for 2 hrs by fluorescence assay
Chain of Polyamine deacetylase HDAC10 (Q969S8 whole entry): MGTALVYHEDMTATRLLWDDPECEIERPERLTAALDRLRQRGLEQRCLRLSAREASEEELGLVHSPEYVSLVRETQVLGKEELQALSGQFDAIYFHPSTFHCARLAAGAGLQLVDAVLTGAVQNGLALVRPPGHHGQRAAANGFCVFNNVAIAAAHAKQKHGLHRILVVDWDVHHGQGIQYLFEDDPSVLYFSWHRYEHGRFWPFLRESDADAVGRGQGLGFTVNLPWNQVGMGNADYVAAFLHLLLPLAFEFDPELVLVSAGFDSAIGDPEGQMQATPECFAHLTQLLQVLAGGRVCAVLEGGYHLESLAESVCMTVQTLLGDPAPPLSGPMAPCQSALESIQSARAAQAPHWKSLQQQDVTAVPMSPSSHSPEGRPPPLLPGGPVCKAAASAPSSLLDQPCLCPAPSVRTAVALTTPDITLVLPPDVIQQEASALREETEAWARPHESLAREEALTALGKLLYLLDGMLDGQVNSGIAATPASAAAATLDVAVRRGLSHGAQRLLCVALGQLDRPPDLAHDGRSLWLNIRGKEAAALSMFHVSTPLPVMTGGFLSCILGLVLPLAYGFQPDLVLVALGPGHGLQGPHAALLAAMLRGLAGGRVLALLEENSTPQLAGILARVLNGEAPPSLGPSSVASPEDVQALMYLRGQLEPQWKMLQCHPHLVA

Chain of Histone deacetylase 7 (Homo sapiens) (Q8WUI4 whole entry): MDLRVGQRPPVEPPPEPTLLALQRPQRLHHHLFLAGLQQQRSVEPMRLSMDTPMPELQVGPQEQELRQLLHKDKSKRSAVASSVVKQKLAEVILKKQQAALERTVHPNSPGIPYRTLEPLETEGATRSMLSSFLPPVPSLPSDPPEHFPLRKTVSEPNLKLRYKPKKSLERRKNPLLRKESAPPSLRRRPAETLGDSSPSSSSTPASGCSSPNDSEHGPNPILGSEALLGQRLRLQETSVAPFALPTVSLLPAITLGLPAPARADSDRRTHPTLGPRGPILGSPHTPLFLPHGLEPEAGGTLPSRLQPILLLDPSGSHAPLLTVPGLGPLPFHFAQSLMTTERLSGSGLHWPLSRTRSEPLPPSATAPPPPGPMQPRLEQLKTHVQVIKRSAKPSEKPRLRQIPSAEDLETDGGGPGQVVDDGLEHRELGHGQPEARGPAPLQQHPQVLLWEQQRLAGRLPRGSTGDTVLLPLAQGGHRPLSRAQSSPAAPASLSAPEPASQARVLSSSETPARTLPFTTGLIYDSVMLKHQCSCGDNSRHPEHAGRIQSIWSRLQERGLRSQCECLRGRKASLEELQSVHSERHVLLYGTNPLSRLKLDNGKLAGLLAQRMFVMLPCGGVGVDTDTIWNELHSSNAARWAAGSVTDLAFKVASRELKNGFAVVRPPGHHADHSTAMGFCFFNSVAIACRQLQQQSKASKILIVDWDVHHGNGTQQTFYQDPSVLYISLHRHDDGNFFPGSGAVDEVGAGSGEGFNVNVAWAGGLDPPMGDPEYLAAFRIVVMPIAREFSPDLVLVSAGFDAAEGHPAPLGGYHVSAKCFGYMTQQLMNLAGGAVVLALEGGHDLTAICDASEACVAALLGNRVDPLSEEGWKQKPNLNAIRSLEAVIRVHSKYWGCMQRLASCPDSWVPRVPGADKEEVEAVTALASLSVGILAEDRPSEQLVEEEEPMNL
Chain of Protein arginine N-methyltransferase 1 (Homo sapiens) (Q99873 whole entry, looked up): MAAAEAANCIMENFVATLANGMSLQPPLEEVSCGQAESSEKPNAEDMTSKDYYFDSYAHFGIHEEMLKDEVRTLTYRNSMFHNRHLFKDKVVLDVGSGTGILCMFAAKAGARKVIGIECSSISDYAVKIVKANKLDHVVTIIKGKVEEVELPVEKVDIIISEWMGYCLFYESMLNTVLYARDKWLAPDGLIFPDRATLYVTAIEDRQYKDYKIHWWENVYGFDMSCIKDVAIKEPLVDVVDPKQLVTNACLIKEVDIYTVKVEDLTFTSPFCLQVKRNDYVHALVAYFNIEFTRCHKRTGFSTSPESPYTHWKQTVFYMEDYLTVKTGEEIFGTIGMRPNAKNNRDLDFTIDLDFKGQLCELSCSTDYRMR
Chain of Histone deacetylase 4 (Homo sapiens) (P56524 whole entry): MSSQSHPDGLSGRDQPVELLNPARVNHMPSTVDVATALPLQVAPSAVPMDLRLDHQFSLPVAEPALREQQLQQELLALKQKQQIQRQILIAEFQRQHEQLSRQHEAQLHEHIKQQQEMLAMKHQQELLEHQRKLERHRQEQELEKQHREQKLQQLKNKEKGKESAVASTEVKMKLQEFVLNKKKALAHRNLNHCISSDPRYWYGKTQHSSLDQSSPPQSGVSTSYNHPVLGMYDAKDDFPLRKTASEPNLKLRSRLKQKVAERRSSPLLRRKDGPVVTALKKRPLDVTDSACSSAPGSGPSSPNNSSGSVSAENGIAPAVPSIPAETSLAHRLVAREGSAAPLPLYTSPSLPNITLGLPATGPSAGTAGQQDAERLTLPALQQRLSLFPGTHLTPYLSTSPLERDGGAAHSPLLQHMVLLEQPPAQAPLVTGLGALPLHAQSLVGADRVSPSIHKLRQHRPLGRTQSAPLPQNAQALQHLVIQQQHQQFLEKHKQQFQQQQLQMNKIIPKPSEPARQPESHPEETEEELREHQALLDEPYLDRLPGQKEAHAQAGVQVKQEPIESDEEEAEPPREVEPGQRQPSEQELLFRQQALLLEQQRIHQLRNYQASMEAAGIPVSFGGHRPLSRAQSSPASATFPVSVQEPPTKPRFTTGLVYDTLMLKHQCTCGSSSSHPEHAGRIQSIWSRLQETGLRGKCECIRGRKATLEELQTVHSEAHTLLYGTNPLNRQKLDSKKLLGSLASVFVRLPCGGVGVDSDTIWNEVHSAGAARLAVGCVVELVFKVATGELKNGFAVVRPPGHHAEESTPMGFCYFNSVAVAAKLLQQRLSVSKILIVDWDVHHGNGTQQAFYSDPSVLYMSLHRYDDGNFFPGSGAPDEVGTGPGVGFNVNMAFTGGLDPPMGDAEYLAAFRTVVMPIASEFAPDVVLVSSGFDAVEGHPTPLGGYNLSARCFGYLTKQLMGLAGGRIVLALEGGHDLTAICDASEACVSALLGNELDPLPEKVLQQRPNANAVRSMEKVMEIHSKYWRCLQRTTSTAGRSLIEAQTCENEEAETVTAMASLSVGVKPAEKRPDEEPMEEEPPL
Chain of Histone deacetylase 2 (Q92769 whole entry): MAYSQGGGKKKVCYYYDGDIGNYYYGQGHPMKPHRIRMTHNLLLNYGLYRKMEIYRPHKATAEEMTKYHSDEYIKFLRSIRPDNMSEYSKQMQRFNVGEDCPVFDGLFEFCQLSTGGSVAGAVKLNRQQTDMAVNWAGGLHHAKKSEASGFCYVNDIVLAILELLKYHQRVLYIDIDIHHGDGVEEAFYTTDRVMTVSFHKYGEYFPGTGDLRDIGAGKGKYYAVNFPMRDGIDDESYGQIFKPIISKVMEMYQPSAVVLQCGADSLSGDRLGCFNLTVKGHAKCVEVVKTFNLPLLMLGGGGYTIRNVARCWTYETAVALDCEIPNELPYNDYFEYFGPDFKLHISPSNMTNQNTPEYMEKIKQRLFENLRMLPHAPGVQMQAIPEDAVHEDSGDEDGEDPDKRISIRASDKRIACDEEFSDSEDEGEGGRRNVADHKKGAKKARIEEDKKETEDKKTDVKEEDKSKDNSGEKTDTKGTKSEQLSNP

COc1ccc(CN2CCC(Nc3nc(Nc4ccc(NC(=O)CCCCCCC(=O)NO)cc4)nc4cc(OC)c(OC)cc34)CC2)cc1
Ratio IC50 (Homo sapiens [1]): 13
inhibition (Homo sapiens [2]): 42%
Ratio IC50 (Homo sapiens [3]): > 3000
viability at 3 µM (MDA-MB-231 [4]): 48%
EC50 (TAMH): 29 µM
Activity (KMS-12-BM): Active
Papp at 16 h [5]: 7.9 ×10⁻⁶ cm/s
inhibition [6]: inactive
EC50 (MOLM-14): 2800 nM
Ratio IC50 (Homo sapiens [7]): 435
half-life at 3 µM [8]: 104 min
inhibition [9]: 20%
inhibition [10]: inactive
IC50 (Histone deacetylase 2): 1130 nM
viability at 6 µM (MDA-MB-231 [11]): 52%
IC50 [12]: 2690 nM
